According to patent publication US11185073B2, “Microbiocidal quinoline (thio)carboxamide derivatives” (SYNGENTA PARTICIPATIONS AG, priority 2017, dated 2021):

Legend:
[1] = system: Glomerella lagenarium (Colletotrichum lagenarium); test: Glomerella lagenarium (Colletotrichum lagenarium) / liquid culture (anthracnose); format: cell-based; settings: Colletotrichum orbiculare, growth inhibition photometrically 3-4 days after application, compared to untreated control
[2] = system: Botryotinia fuckeliana (Botrytis cinerea); test: Botryotinia fuckeliana (Botrytis cinerea) / liquid culture (gray mould); format: cell-based; settings: 72 h, growth inhibition photometrically 3-4 days after application, compared to untreated control
Fusarium culmorum [3] = test: microbe, parasite or virus in culture; format: cell-based; settings: 72 h, read-out: control of Fusarium culmorum
Fusarium culmorum [4] = test: whole plant or invertebrate; format: in vivo; settings: in Triticum aestivum, read-out: control of Fusarium culmorum
[5] = system: Gibberella zeae (Fusarium graminearum); test: whole plant or invertebrate; format: in vivo; settings: in Triticum aestivum, read-out: control of Gibberella zeae
[6] = system: Magnaporthe grisea (Pyricularia oryzae); test: microbe, parasite or virus in culture; format: cell-based; settings: 72 h, read-out: control of Magnaporthe grisea
[7] = system: Monographella nivalis (Microdochium nivale); test: Monographella nivalis (Microdochium nivale) / liquid culture (foot rot cereals); format: cell-based; settings: 96 h, growth inhibition photometrically 4-5 days after application, compared to untreated control

CC(COC1CCC1)(CC(F)(F)F)NC(=O)c1cnc2c(F)cccc2c1 (stereo in doubt) [E.014, N-[(1S)-1-(cyclo-butoxymethyl)-3,3,3-trifluoro-1-methyl-propyl]-8-fluoro-quinoline-3-carboxamide]
≥ 80%: inhibition of growth at 20 ppm [1] | inhibition of growth at 20 ppm [2] | inhibition of growth at 20 ppm (Fusarium culmorum [3]) | pest or weed control at 200 ppm (Fusarium culmorum [4]) | pest or weed control at 200 ppm [5]

CC(COC1CCCCC1)(CC(F)(F)F)NC(=O)c1cnc2c(F)cccc2c1 (stereo in doubt) [E.017, N-[(1S)-1-(cyclo-hexoxymethyl)-3,3,3-trifluoro-1-methyl-propyl]-8-fluoro-quinoline-3-carboxamide]
≥ 80%: pest or weed control at 200 ppm [5]

CC(C)(C)CC(C)(COCC1CC1)NC(=O)c1cnc2c(F)cccc2c1 (centres unmarked) [E.006, N-[1-(cyclo-propylmethoxy-methyl)-1,3,3-trimethylbutyl]-8-fluoro-quinoline-3-carboxamide]
≥ 80%: inhibition of growth at 20 ppm [1] | inhibition of growth at 20 ppm [6] | inhibition of growth at 20 ppm [2] | inhibition of growth at 20 ppm (Fusarium culmorum [3]) | pest or weed control at 200 ppm (Fusarium culmorum [4]) | inhibition of growth at 20 ppm [7]

Cc1c(C(=O)NC(C)(COC2CCC2)CC(F)(F)F)cnc2c(F)cccc12 (centres unmarked) [E.007, N-[1-(cyclo-butoxymethyl)-3,3,3-trifluoro-1-methyl-propyl]-8-fluoro-4-methyl-quinoline-3-carboxamide]
≥ 80%: inhibition of growth at 20 ppm [1] | inhibition of growth at 20 ppm [6] | inhibition of growth at 20 ppm [2] | inhibition of growth at 20 ppm (Fusarium culmorum [3]) | pest or weed control at 200 ppm (Fusarium culmorum [4]) | pest or weed control at 200 ppm [5] | inhibition of growth at 20 ppm [7]

CC(COC1CCC1)(CC(F)(F)F)NC(=O)c1cnc2c(F)c(F)ccc2c1 (centres unmarked) [E.008, N-[1-(cyclo-butoxymethyl)-3,3,3-trifluoro-1-methyl-propyl]-7,8-difluoro-quinoline-3-carboxamide]
≥ 80%: inhibition of growth at 20 ppm [1] | inhibition of growth at 20 ppm [6] | inhibition of growth at 20 ppm [2] | inhibition of growth at 20 ppm (Fusarium culmorum [3]) | pest or weed control at 200 ppm (Fusarium culmorum [4]) | pest or weed control at 200 ppm [5] | inhibition of growth at 20 ppm [7]

Cc1nc2c(F)cccc2cc1C(=O)NC(C)(COC1CCC1)CC(F)(F)F (centres unmarked) [E.009, N-[1-(cyclo-butoxymethyl)-3,3,3-trifluoro-1-methyl-propyl]-8-fluoro-2-methyl-qiuinoline-3-carboxamide]
≥ 80%: inhibition of growth at 20 ppm [1] | inhibition of growth at 20 ppm [6] | inhibition of growth at 20 ppm [2] | inhibition of growth at 20 ppm (Fusarium culmorum [3])

CC(COC1(C)CCCC1)(CC(F)(F)F)NC(=O)c1cnc2c(F)cccc2c1 (centres unmarked) [E.010]
≥ 80%: inhibition of growth at 20 ppm [1] | inhibition of growth at 20 ppm [2] | inhibition of growth at 20 ppm (Fusarium culmorum [3]) | pest or weed control at 200 ppm (Fusarium culmorum [4]) | pest or weed control at 200 ppm [5] | inhibition of growth at 20 ppm [7]

Cc1cccc2cc(C(=O)NC(C)(COC3CCC3)CC(F)(F)F)cnc12 (centres unmarked) [E.011]
≥ 80%: inhibition of growth at 20 ppm [1] | inhibition of growth at 20 ppm [6] | inhibition of growth at 20 ppm [2] | inhibition of growth at 20 ppm (Fusarium culmorum [3]) | pest or weed control at 200 ppm (Fusarium culmorum [4]) | inhibition of growth at 20 ppm [7]

CC(COC1CCC1)(CC(F)(F)F)NC(=O)c1cnc2c(Cl)cccc2c1 (centres unmarked) [E.012, 8-chloro-N-[1-(cyclobutoxymethyl)-3,3,3-trifluoro-1-methyl-propyl]-quinoline-3-carboxamide]
≥ 80%: inhibition of growth at 20 ppm [1] | inhibition of growth at 20 ppm [6] | inhibition of growth at 20 ppm [2] | inhibition of growth at 20 ppm (Fusarium culmorum [3]) | pest or weed control at 200 ppm (Fusarium culmorum [4]) | pest or weed control at 200 ppm [5] | inhibition of growth at 20 ppm [7]

C[C@@](COC1CCC1)(CC(F)(F)F)NC(=O)c1cnc2c(F)cccc2c1 [E.013, N-[(1S)-1-(cyclo-butoxymethyl)-3,3,3-trifluoro-1-methyl-propyl]-8-fluoro-quinoline-3-carboxamide]
≥ 80%: inhibition of growth at 20 ppm [1] | inhibition of growth at 20 ppm [2] | inhibition of growth at 20 ppm (Fusarium culmorum [3]) | pest or weed control at 200 ppm (Fusarium culmorum [4]) | inhibition of growth at 20 ppm [7]

CC(COC1(C)CCCCC1)(CC(F)(F)F)NC(=O)c1cnc2c(F)cccc2c1 (centres unmarked) [E.015, 8-fluoro-N-[3,3,3-trifluoro-1-methyl-1-[(1-methylcyclo-hexoxy)methyl]-propyl]quinoline-3-carboxamide]
≥ 80%: inhibition of growth at 20 ppm [1] | inhibition of growth at 20 ppm [6] | inhibition of growth at 20 ppm [2] | inhibition of growth at 20 ppm (Fusarium culmorum [3])

CC1(CC(C)(COCc2ccccc2)NC(=O)c2cnc3c(F)cccc3c2)CC1 (centres unmarked) [E.018, N-[1-(benzyloxy-methyl)-1-methyl-2-(1-methylcyclo-propyl)ethyl]-8-fluoro-quinoline-3-carboxamide]
≥ 80%: inhibition of growth at 20 ppm [6] | inhibition of growth at 20 ppm [2] | inhibition of growth at 20 ppm (Fusarium culmorum [3]) | inhibition of growth at 20 ppm [7]

CC(COc1ccccc1)(CC(F)(F)F)NC(=O)c1cnc2c(F)cccc2c1 (centres unmarked) [E.019, 8-fluoro-N-[3,3,3-trifluoro-1-methyl-1-(phenoxy-methyl)propyl]-quinoline-3-carboxamide]
≥ 80%: inhibition of growth at 20 ppm [1] | inhibition of growth at 20 ppm [6] | inhibition of growth at 20 ppm [2] | inhibition of growth at 20 ppm (Fusarium culmorum [3]) | pest or weed control at 200 ppm (Fusarium culmorum [4]) | pest or weed control at 200 ppm [5] | inhibition of growth at 20 ppm [7]

C=C(C)COCC(C)(CC(C)C)NC(=O)c1cnc2c(F)cccc2c1 (centres unmarked) [E.020, N-[1,3-dimethyl-1-(2-methylallyloxy-methyl)butyl]-8-fluoro-quinoline-3-carboxamide]
≥ 80%: inhibition of growth at 20 ppm [1] | inhibition of growth at 20 ppm [6] | inhibition of growth at 20 ppm [2] | inhibition of growth at 20 ppm (Fusarium culmorum [3]) | pest or weed control at 200 ppm (Fusarium culmorum [4]) | pest or weed control at 200 ppm [5] | inhibition of growth at 20 ppm [7]

CC(COC1CCC1)(CC(F)(F)F)NC(=O)c1cnc2c(F)cccc2c1 (centres unmarked) [E.021, N-[1-(cyclobutoxy-methyl)-3,3,3-trifluoro-1-methyl-propyl]-8-fluoro-quinoline-3-carboxamide]
≥ 80%: inhibition of growth at 20 ppm [1] | inhibition of growth at 20 ppm [6] | inhibition of growth at 20 ppm [2] | inhibition of growth at 20 ppm (Fusarium culmorum [3])

CCC(CC)OCC(C)(CC(C)C)NC(=O)c1cnc2c(F)cccc2c1 (centres unmarked) [E.022, N-[1-(1-ethyl-propoxymethyl)-1,3-dimethyl-butyl]-8-fluoro-quinoline-3-carboxamide]
≥ 80%: inhibition of growth at 20 ppm [1] | inhibition of growth at 20 ppm [6] | inhibition of growth at 20 ppm [2] | inhibition of growth at 20 ppm (Fusarium culmorum [3]) | pest or weed control at 200 ppm (Fusarium culmorum [4]) | inhibition of growth at 20 ppm [7]

CC(C)CC(C)(COC1CCC1)NC(=O)c1cnc2c(F)cccc2c1 (centres unmarked) [E.023, N-[1-(cyclo-butoxymethyl)-1,3-dimethyl-butyl]-8-fluoro-quinoline-3-carboxamide]
≥ 80%: inhibition of growth at 20 ppm [1] | inhibition of growth at 20 ppm [6] | inhibition of growth at 20 ppm [2] | inhibition of growth at 20 ppm (Fusarium culmorum [3]) | pest or weed control at 200 ppm (Fusarium culmorum [4]) | pest or weed control at 200 ppm [5] | inhibition of growth at 20 ppm [7]

CC(C)CC(C)(COC(C)C)NC(=O)c1cnc2c(F)cccc2c1 (centres unmarked) [E.024, 8-fluoro-N-[1-(iso-propoxymethyl)-1,3-dimethyl-butyl]quinoline-3-carboxamide]
≥ 80%: inhibition of growth at 20 ppm [1] | inhibition of growth at 20 ppm [6] | inhibition of growth at 20 ppm [2] | inhibition of growth at 20 ppm (Fusarium culmorum [3]) | pest or weed control at 200 ppm (Fusarium culmorum [4]) | pest or weed control at 200 ppm [5]

CC(C)COCC(C)(CC(C)C)NC(=O)c1cnc2c(F)cccc2c1 (centres unmarked) [E.025, 8-fluoro-N-[1-(iso-butoxymethyl)-1,3-dimethyl-butyl]-quinoline-3-carboxamide]
≥ 80%: inhibition of growth at 20 ppm [1] | inhibition of growth at 20 ppm [6] | inhibition of growth at 20 ppm [2] | inhibition of growth at 20 ppm (Fusarium culmorum [3]) | pest or weed control at 200 ppm (Fusarium culmorum [4]) | pest or weed control at 200 ppm [5] | inhibition of growth at 20 ppm [7]

CC(C)CC(C)(COc1ccccc1)NC(=O)c1cnc2c(F)cccc2c1 (centres unmarked) [E.028, N-[1,3-dimethyl-1-(phenoxymethyl)-butyl]-8-fluoro-quinoline-3-carboxamide]
≥ 80%: inhibition of growth at 20 ppm [1] | inhibition of growth at 20 ppm [2] | inhibition of growth at 20 ppm (Fusarium culmorum [3]) | pest or weed control at 200 ppm (Fusarium culmorum [4]) | inhibition of growth at 20 ppm [7]

CC(C)CC(C)(COC1CCCCC1)NC(=O)c1cnc2c(F)cccc2c1 (centres unmarked) [E.029, N-[1-(cyclohexoxy-methyl)-1,3-dimethyl-butyl]-8-fluoro-quinoline-3-carboxamide]
≥ 80%: inhibition of growth at 20 ppm [1] | inhibition of growth at 20 ppm [6] | inhibition of growth at 20 ppm [2] | inhibition of growth at 20 ppm (Fusarium culmorum [3]) | pest or weed control at 200 ppm (Fusarium culmorum [4]) | inhibition of growth at 20 ppm [7]

CC(C)CC(C)(COC1CCCC1)NC(=O)c1cnc2c(F)cccc2c1 (centres unmarked) [E.031, N-[1-(cyclopentoxy-methyl)-1,3-dimethyl-butyl]-8-fluoro-quinoline-3-carboxamide]
≥ 80%: inhibition of growth at 20 ppm [1] | inhibition of growth at 20 ppm [6] | inhibition of growth at 20 ppm [2] | inhibition of growth at 20 ppm (Fusarium culmorum [3]) | pest or weed control at 200 ppm (Fusarium culmorum [4]) | inhibition of growth at 20 ppm [7]

CCCCCCCCC(C)(COC)NC(=O)c1cnc2c(F)cccc2c1 (centres unmarked) [E.033, 8-fluoro-N-[1-(methoxymethyl)-1-methyl-nonyl]-quinoline-3-carboxamide]
≥ 80%: inhibition of growth at 20 ppm [1] | inhibition of growth at 20 ppm [2] | inhibition of growth at 20 ppm (Fusarium culmorum [3]) | pest or weed control at 200 ppm [5] | inhibition of growth at 20 ppm [7]
